Source: patent US20240122179A1, “AUXINIC HERBICIDES AND METHODS OF USE THEREOF” (CORTEVA AGRISCIENCE LLC, priority 2021, published 2024)
Where two headings read alike, the source gives them in different places.

Legend:
[1] = tested on: Amaranthus palmeri (AMAPA); assay: Postemergence herbicide evaluation, percent reduction in plant size vs untreated control, 21 days after treatment; assay type: in vivo, Amaranthus palmeri (Palmer amaranth); conditions: post-emergence, 504 h, read-out: Control/Injury
How it was run: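 Greenhouse-grown Palmer amaranth (25 to 28° C, 16 h light) sprayed postemergence at the 2 to 8 leaf stage with 140 or 280 g ae/ha in acetone/DMSO-based solution containing crop oil concentrate, 187 L/ha by track sprayer. Three to four replicates; plant size measured 21 days after treatment as percent reduction versus untreated control.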

[2] = tested on: Conyza canadensis (L.) (ERICA); assay: as above; assay type: in vivo, Conyza canadensis (L.) (Horseweed); conditions: Erigeron canadensis, post-emergence, 504 h, read-out: Control/Injury
How it was run: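 Horseshoe-weed (horseweed) seedlings at 2 to 8 leaf stage in greenhouse (25-28° C, 16 h light), sprayed postemergence at 140 or 280 g ae/ha in acetone/DMSO-based spray solution, 187 L/ha track-sprayer. Randomized complete block, 3-4 replicates; plant size measured 21 days after treatment as percent reduction vs untreated controls.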

[3] = tested on: Ambrosia artemisiifolia (AMBEL); assay: as above; assay type: in vivo, Ambrosia artemisiifolia (common ragweed); conditions: post-emergence, 504 h, read-out: Control/Injury
How it was run: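 Greenhouse-grown plants (25–28 °C, 16 h light) were sprayed postemergence at the 2–8 leaf stage with 140 or 280 g ae/ha in acetone/DMSO-based spray solution with crop oil and surfactant, at 187 L/ha by track sprayer. There were 3–4 replicates. Plant size was measured 21 days after treatment versus untreated plants.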

[4] = tested on: Amaranthus rudis (AMATA); assay: as above; assay type: in vivo, Amaranthus rudis (tall water hemp); conditions: Amaranthus tuberculatus, post-emergence, 504 h, read-out: Control/Injury
How it was run: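 Greenhouse-grown tall waterhemp (25-28° C, 16 h light) at the 2-8 leaf stage, treated by track sprayer at 187 L/ha with compound at 140 or 280 g ae/ha in acetone/DMSO-based spray solution with crop oil and surfactant. 3-4 replicates per treatment, randomized complete block; plant size reduction versus untreated control measured 21 days after treatment.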

[5] = tested on: Glycine max; assay: whole plant or invertebrate; conditions: Glycine max, post-emergence, 504 h, read-out: Control/Injury
Experimental: Plants were grown in a soil media composed of 90% by volume Promix BX (Premier Tech Horticulture, Quakertown, PA) and 10% Profile Greens Grade (Profile Products LLC, Buffalo Grove, IL). Promix BX contains approximately 83% Sphagnum Peat Moss, 13% Perlite, 5% vermiculite, and proprietary amounts of limestone, starter fertilizer, and wetting agent. Profile Greens Grade is a sand-sized granule formed from calcining illite and montmorillonite clay. Several seeds of each species were planted in 10 cm square pots and top watered twice daily. Plant material was propagated in a warm greenhouse with temperature ranging from 25 to 28° C. and 50 to 60% relative humidity at the Corteva Global Headquarters (Indianapolis, Indiana, USA). Natural light was supplemented with 1000-watt metal halide overhead lamps with an average illumination of 500 μE m^−2 s^−1 photosynthetic active radiation for 16 consecutive hours each day. Plants were top-watered prior to herbicide application and sub-watered after herbicide application.
Appropriate amounts of test materials were weighed out into glass vials in their technical form to deliver either 140 or 280 g acid equivalent (ae)/ha. The samples were dissolved in 3 ml of Solvent 1. Solvent 1 is 97% acetone and 3% dimethyl sulfoxide and serves as a general-purpose solvent (GPS) for dissolving technical materials. […] The samples were then diluted to their final concentration using 17 ml of solvent 2 for a total of 20 ml of spray solution. Solvent 2 contains 41.58% GPS, 45.53% water, 11.88% isopropyl alcohol, 0.99% crop oil concentrate and 0.02% Trition X-155 surfactant. All percentages are listed on a volume basis. Dicamba diglycolamine was applied as a formulated herbicide, Clarity™ and diluted with solvent 2 to compare all materials in the same spray solution.
Herbicide applications were made to 3 to 4 replicates of each plant species at the 2 to 8 leaf stage, depending on the species. Treatments were applied with a research track-sprayer (Generation III Research Sprayer manufactured by DeVries Manufacturing in Hollandale, MN, USA) calibrated to deliver a spray volume of 187 L/ha. The track-sprayer was fitted with an 8003E nozzle from Spray Systems Company (North Avenue and Schmale Road, P.O. Box 7900, Wheaton, IL 60187), and used a spray pressure of 276 kPa pressure and a speed of 3.1 km/h. The nozzle height was 46 cm above the plant canopy. The experimental design used for the trials was a randomized complete block with 3 or 4 replications per treatment. After application, plants were placed on carts according to the randomization and returned to the greenhouse. Plants were sub-watered after treatment with Indianapolis city water or fertilized three times a week with a commercial fertilizer solution (Jack's Professional 15-5-15 4 Ca 2 Mg fertilizer (manufactured by JR PETERS INC., 6656 Grant Way, Allentown, PA 18106; www.jrpeters.com). Percent visual control assessments were made on a scale of 0 to 100% (where 0 was no control and 100 was complete plant death) at 7, 14, and 21 days after treatment.
In conformity with the methods outlined in Example 49, the effect of representative experimental compounds on the growth of Glycine max was determined at 2 different levels (respectively, 140 and 280 g acid equivalent (ae)/ha) of the experimental actives tested. Plants were treated with one of the compounds, a control plant was not treated. Twenty-one days after treatment, the plants were measured. The data is present as a percent reduction in plant size relative to the untreated control.

[6] = tested on: Kochia scoparia (KCHSC); assay: Postemergence herbicide evaluation, percent reduction in plant size vs untreated control, 21 days after treatment; assay type: in vivo; conditions: Bassia scoparia, post-emergence, 504 h, read-out: Control/Injury
How it was run: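 Greenhouse-grown plants (25-28 °C, 16 h light) at the 2 to 8 leaf stage were track-sprayed postemergence at 140 or 280 g ae/ha in acetone/DMSO-based spray solution with crop oil and surfactant, at 187 L/ha, in 3-4 randomized replicates.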

[7] = R-AMAPA, rate 140 g ae/ha, postemergence, percent reduction vs untreated control, 21 days after treatment
[8] = R-AMAPA, rate 280 g ae/ha, postemergence, percent reduction vs untreated control, 21 days after treatment
[9] = ERICA, rate 140 g ae/ha, postemergence, percent reduction vs untreated control, 21 days after treatment
[10] = ERICA, rate 280 g ae/ha, postemergence, percent reduction vs untreated control, 21 days after treatment
[11] = AMBEL, rate 140 g ae/ha, postemergence
[12] = AMBEL, rate 280 g ae/ha, postemergence
[13] = AMATA, rate 140 g ae/ha, postemergence
[14] = AMATA, rate 280 g ae/ha, postemergence
[15] = KCHSC, rate 280 g ae/ha, postemergence, percent reduction vs untreated control, 21 days after treatment
[16] = KCHSC, rate 140 g ae/ha, postemergence, percent reduction vs untreated control, 21 days after treatment

Compound | pest or weed control at 140 g/ha [1, 7] | pest or weed control at 280 g/ha [1, 8] | pest or weed control at 140 g/ha [2, 9] | pest or weed control at 280 g/ha [2, 10] | pest or weed control at 140 g/ha [3, 11] | pest or weed control at 280 g/ha [3, 12] | pest or weed control at 140 g/ha [4, 13] | pest or weed control at 280 g/ha [4, 14] | plant injury at 140 g/ha [5] | plant injury at 280 g/ha [5] | pest or weed control at 280 g/ha [6, 15] | pest or weed control at 140 g/ha [6, 16] | also measured
COc1c(Cl)ccc(Cl)c1C(=O)NS(=O)(=O)c1ccc(C)cc1 [Compound A-78] | 23% | 32% | 5% | 15% | 45% | 57% | 12% | 20% | 25% | 67% | 85% | – | pest or weed control at 140 g/ha ([6]; KCHSC, rate 140 g ae/ha, postemergence): 50%
COc1c(Cl)ccc(Cl)c1C(=O)NS(=O)(=O)c1nccn1C [Compound A-79] | 13% | 10% | 0% | 2% | 15% | 22% | 7% | 13% | 6% | 3% | 3% | 0% | –
CCCCCC(=O)NOC(=O)c1c(Cl)ccc(Cl)c1OC [Compound A-80] | 20% | 35% | 20% | 23% | 63% | 62% | 33% | 38% | 2% | 4% | 22% | 13% | –
COc1c(Cl)ccc(Cl)c1C(=O)O/N=C/c1cccnc1 [Compound A-81] | 17% | 15% | 0% | 7% | 15% | 27% | 3% | 8% | 19% | 20% | 7% | 2% | –
COc1c(Cl)ccc(Cl)c1C(=O)O/N=C(\C)C(C)(C)C [Compound A-82] | 85% | 83% | 91% | 96% | 90% | 88% | 78% | 72% | 27% | 7% | 88% | 98% | –
CO/C(=N\OC(=O)c1c(Cl)ccc(Cl)c1OC)c1ccccc1 [Compound A-83] | 70% | 83% | 90% | 97% | 93% | 87% | 65% | 65% | 22% | 15% | 94% | 85% | –
COc1c(Cl)ccc(Cl)c1C(=O)O/N=C(\C#N)c1ccccc1 [Compound A-84] | – | – | – | – | – | – | – | – | 8% | 38% | – | – | pest or weed control at 140 g/ha [1]: 33%; pest or weed control at 280 g/ha [1]: 28%; pest or weed control at 140 g/ha [2]: 37%; pest or weed control at 280 g/ha [2]: 78%; pest or weed control at 140 g/ha [3]: 70%; pest or weed control at 280 g/ha [3]: 78%; pest or weed control at 140 g/ha [4]: 17%; pest or weed control at 280 g/ha [4]: 27%; pest or weed control at 140 g/ha [6]: 68%; pest or weed control at 280 g/ha [6]: 85%
CCOC(=O)/C(C#N)=N/OC(=O)c1c(Cl)ccc(Cl)c1OC [Compound A-86] | 72% | 73% | 87% | 95% | 88% | 91% | 63% | 67% | 32% | 25% | 97% | 90% | –
CCOC(=O)C(=NOC(=O)c1c(Cl)ccc(Cl)c1OC)C(=O)OCC [Compound A-87] | 62% | 53% | 30% | 33% | 70% | 65% | 37% | 20% | 5% | 28% | 70% | 90% | –
COc1c(Cl)ccc(Cl)c1C(=O)ONC(=O)c1ccccc1 [Compound A-89] | 70% | 88% | 77% | 95% | 80% | 90% | 63% | 78% | 13% | 5% | 95% | 84% | –
